Measured values from patent US12528812B2 (Genentech, Inc., priority 2020, dated 2026).

Tests used:
[1] = target: Recombinant human JAK2 kinase domain protein (Residues 812-1132) (Homo sapiens, UniProt O60674); assay: JAK2 biochemical assay (LabChip mobility shift, Ki); details: Biochem JAK2 Ki
[2] = tested on: IL-13-stimulated STAT6 phosphorylation in human lung bronchial epithelial BEAS-2B cell line; assay: P-STAT6 BEAS-2B + IL-13 cell assay; format: cell-based; details: Homo sapiens, BEAS-2B, BEAS2B cells, IL13 stimulation; read-out: Cellular JAK1 PSTAT6 BEAS2B + IL13
Summary of the method: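 Phospho-STAT6 (Tyr641) was quantified in lysates by MSD electrochemiluminescence after human IL-13 challenge (250 ng/mL stock, 15 min, 37 °C). Before that, BEAS-2B cells cultured 48 h had 1 h compound exposure over 10 concentrations. Percent of control was fitted to a four-parameter logistic model to give IC50.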

[3] = target: T1, recombinant human JAK1 kinase domain protein (Residues 854-1154) (Homo sapiens, UniProt P23458); assay: JAK1 biochemical assay (LabChip mobility shift, Ki); details: read-out: Biochem JAK1 Ki
T1 construct: human JAK1 kinase domain protein (Residues 854-1154); purchased Proteros Biostructures GmbH (Martinsried, Germany); host or cells: insect cells
T1 sequence (P23458 854-1154): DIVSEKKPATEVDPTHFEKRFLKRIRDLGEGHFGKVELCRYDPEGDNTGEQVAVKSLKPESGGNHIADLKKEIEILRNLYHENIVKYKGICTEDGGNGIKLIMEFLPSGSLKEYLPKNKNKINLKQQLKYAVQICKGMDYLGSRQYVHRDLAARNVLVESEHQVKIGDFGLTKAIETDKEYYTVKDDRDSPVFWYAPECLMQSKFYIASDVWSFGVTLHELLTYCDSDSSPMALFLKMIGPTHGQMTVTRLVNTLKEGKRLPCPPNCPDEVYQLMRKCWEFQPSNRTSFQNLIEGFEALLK

Recombinant human JAK2 kinase domain protein (Residues 812-1132), sequence (O60674 812-1132): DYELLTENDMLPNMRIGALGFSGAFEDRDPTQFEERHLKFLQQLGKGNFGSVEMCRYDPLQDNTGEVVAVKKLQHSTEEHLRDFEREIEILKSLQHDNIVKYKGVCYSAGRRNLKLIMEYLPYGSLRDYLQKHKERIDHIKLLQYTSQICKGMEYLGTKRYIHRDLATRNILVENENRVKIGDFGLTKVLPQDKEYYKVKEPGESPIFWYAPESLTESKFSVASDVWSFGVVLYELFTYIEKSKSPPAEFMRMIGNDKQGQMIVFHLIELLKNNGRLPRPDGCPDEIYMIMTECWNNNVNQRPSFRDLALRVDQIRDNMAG

Row | Ki [1] [nM] | Ki [3] [nM] | SMILES | IC50 [2] [nM]
1 | 0.38 | 0.25 | CC(N)c1cccc(Oc2ccc(OC(F)F)c(-c3n[nH]cc3NC(=O)c3cnn4cccnc34)c2)c1 (stereo not drawn) [Example 14, N-[3-[5-[3-(1-aminoethyl)phenoxy]-2-(difluoromethoxy)phenyl]-1H-pyrazol-4-yl]pyrazolo[1,5-a]pyrimidine-3-carboxamide] | 26
2 | 0.95 | 1.9 | Cn1cc(NC(=O)c2cnn3cccnc23)c(-c2cc(Oc3ccc(CN4CCC[C@@H]4CO)cc3)ccc2OC(F)F)n1 (racemic) [Example 171, N-[3-[2-(difluoromethoxy)-5-[4-[[rac-(2R)-2-(hydroxymethyl)pyrrolidin-1-yl]methyl]phenoxy]phenyl]-1-methyl-pyrazol-4-yl]pyrazolo[1,5-a]pyrimidine-3-carboxamide] | 50
3 | 0.15 | 0.27 | CN(C)C(=O)Cc1ccc(Oc2ccc(OC(F)F)c(-c3nn(C)cc3NC(=O)c3cnn4cccnc34)c2)cc1 [Example 129, N-[3-[2-(difluoromethoxy)-5-[4-[2-(dimethylamino)-2-oxo-ethyl]phenoxy]phenyl]-1-methyl-pyrazol-4-yl]pyrazolo[1,5-a]pyrimidine-3-carboxamide] | 14
4 | 0.56 | 1.7 | Cn1cc(NC(=O)c2cnn3cccnc23)c(-c2cc(Oc3ccc(CN4CCCC4CO)cc3)ccc2OC(F)F)n1 (racemic) [Example 165, N-[3-[2-(difluoromethoxy)-5-[4-[[rac-(2S)-2-(hydroxymethyl)pyrrolidin-1-yl]methyl]phenoxy]phenyl]-1-methyl-pyrazol-4-yl]pyrazolo[1,5-a]pyrimidine-3-carboxamide] | 31
5 | 0.58 | 0.9 | CN(C)C(=O)CNCc1cccc(Oc2ccc(OC(F)F)c(-c3nn(C)cc3NC(=O)c3cnn4cccnc34)c2)c1 [Example 55, N-[3-[2-(difluoromethoxy)-5-[3-[[[2-(dimethylamino)-2-oxo-ethyl]amino]methyl]phenoxy]phenyl]-1-methyl-pyrazol-4-yl]pyrazolo[1,5-a]pyrimidine-3-carboxamide] | 48
6 | 0.56 | 0.93 | CN1CCOC(c2cccc(Oc3ccc(OC(F)F)c(-c4nn(C)cc4NC(=O)c4cnn5cccnc45)c3)c2)C1 (stereo not drawn) [Example 30, N-[3-[2-(difluoromethoxy)-5-[3-(4-methylmorpholin-2-yl)phenoxy]phenyl]-1-methyl-pyrazol-4-yl]pyrazolo[1,5-a]pyrimidine-3-carboxamide] | 40
7 | 1.4 | 0.55 | CN1CCC[C@H]1Cn1cc(NC(=O)c2cnn3cccnc23)c(-c2cc(Oc3cccc(CC#N)c3)ccc2OC(F)F)n1 (racemic) [Example 37, N-[3-[5-[3-(cyanomethyl)phenoxy]-2-(difluoromethoxy)phenyl]-1-[[rac-(2R)-1-methylpyrrolidin-2-yl]methyl]pyrazol-4-yl]pyrazolo[1,5-a]pyrimidine-3-carboxamide] | 16
8 | 0.26 | 0.42 | Cn1cc(NC(=O)c2cnn3cccnc23)c(-c2cc(Oc3cnn(C4CCC4O)c3)ccc2OC(F)F)n1 (stereo not drawn) [Example 134, N-[3-[2-(difluoromethoxy)-5-[1-(2-hydroxycyclobutyl)pyrazol-4-yl]oxy-phenyl]-1-methyl-pyrazol-4-yl]pyrazolo[1,5-a]pyrimidine-3-carboxamide] | 16
9 | 0.72 | 0.69 | CCn1cc(NC(=O)c2cnn3cccnc23)c(-c2cc(Oc3cccc(C4(O)CN(C)C4)c3)ccc2OC(F)F)n1 [Example 108, N-[3-[2-(difluoromethoxy)-5-[3-(3-hydroxy-l-methyl-azetidin-3-yl)phenoxy]phenyl]-1-ethyl-pyrazol-4-yl]pyrazolo[1,5-a]pyrimidine-3-carboxamide] | 60
10 | 0.89 | 0.84 | Cn1cc(NC(=O)c2cnn3cccnc23)c(-c2cc(Oc3cccc(CN4CCO[C@@H](CO)C4)c3)ccc2OC(F)F)n1 (stereo in doubt) [Example 75, N-[3-[2-(difluoromethoxy)-5-[3-[[rac-(2S)-2-(hydroxymethyl)morpholin-4-yl]methyl]phenoxy]phenyl]-1-methyl-pyrazol-4-yl]pyrazolo[1,5-a]pyrimidine-3-carboxamide] | 96
11 | 0.58 | 0.88 | Cn1cc(NC(=O)c2cnn3cccnc23)c(-c2cc(Oc3cc(C4CC4)cc(C4(O)CNC4)c3)ccc2OC(F)F)n1 [Example 109, N-[3-[5-[3-cyclopropyl-5-(3-hydroxyazetidin-3-yl)phenoxy]-2-(difluoromethoxy)phenyl]-1-methyl-pyrazol-4-yl]pyrazolo[1,5-a]pyrimidine-3-carboxamide] | 250
12 | 2.9 | 5.1 | Cn1cc(NC(=O)c2cnn3cccnc23)c(-c2cc(Oc3ccc(CN4CCOCC4)cc3)ccc2OC(F)F)n1 [Example 61, N-[3-[2-(difluoromethoxy)-5-[4-(morpholinomethyl)phenoxy]phenyl]-1-methyl-pyrazol-4-yl]pyrazolo[1,5-a]pyrimidine-3-carboxamide] | 130
13 | 0.59 | 1.5 | Cn1cc(NC(=O)c2cnn3cccnc23)c(-c2cc(Oc3ccc(CN)cc3)ccc2OC(F)F)n1 [Example 20, N-[3-[5-[4-(aminomethyl)phenoxy]-2-(difluoromethoxy)phenyl]-1-methyl-pyrazol-4-yl]pyrazolo[1,5-a]pyrimidine-3-carboxamide] | 19
14 | 0.58 | 1.3 | Cn1cc(NC(=O)c2cnn3cccnc23)c(-c2cc(Oc3ccc(CN4CCC4CO)cc3)ccc2OC(F)F)n1 (racemic) [Example 168, N-[3-[2-(difluoromethoxy)-5-[4-[[rac-(2S)-2-(hydroxymethyl)azetidin-1-yl]methyl]phenoxy]phenyl]-1-methyl-pyrazol-4-yl]pyrazolo[1,5-a]pyrimidine-3-carboxamide] | 30
15 | 0.36 | 0.69 | CN1CC(O)(c2cc(Oc3ccc(OC(F)F)c(-c4nn(C)cc4NC(=O)c4cnn5cccnc45)c3)cc(C3CC3)c2)C1 [Example 110, N-[3-[5-[3-cyclopropyl-5-(3-hydroxy-l-methyl-azetidin-3-yl)phenoxy]-2-(difluoromethoxy)phenyl]-1-methyl-pyrazol-4-yl]pyrazolo[1,5-a]pyrimidine-3-carboxamide] | 30
16 | 0.77 | 0.91 | Cn1cc(NC(=O)c2cnn3cccnc23)c(-c2cc(Oc3cnn([C@H]4C[C@H](N)C4)c3)ccc2OC(F)F)n1 [Example 188, N-[3-[5-[1-(3-aminocyclobutyl)pyrazol-4-yl]oxy-2-(difluoromethoxy)phenyl]-1-methyl-pyrazol-4-yl]pyrazolo[1,5-a]pyrimidine-3-carboxamide] | 150
17 | 0.29 | 0.57 | Cc1nn(CCO)cc1Oc1ccc(OC(F)F)c(-c2nn(C)cc2NC(=O)c2cnn3cccnc23)c1 [Example 154, N-[3-[2-(difluoromethoxy)-5-[1-(2-hydroxyethyl)-3-methyl-pyrazol-4-yl]oxy-phenyl]-1-methyl-pyrazol-4-yl]pyrazolo[1,5-a]pyrimidine-3-carboxamide] | 37
